# Reference: patent publication US9340622B2, “Synthetic immunogen useful for generating long lasting immunity and protection against pathogens” (priority 2010, dated 2016)
# Like-named read-outs stand apart in the source and are kept apart here. Ends that are not written are not given here.
# Assays:
# CD4 T cells = test: Intracellular staining for IFN-γ in CD4 T cells; format: cell-based; settings: splenocytes of mice immunized with lipopeptide containing SEQ ID No. 1, cultured 48 h, restimulated 6 h, FIG. 6
# Experimental: FIG. 6. CD4 T cells from mice immunized with immunogen containing SEQ ID No. 1 produced IFN-γ on in vitro peptide restimulation. Mice were immunized with lipopeptide containing SEQ ID No. 1. Splenocytes from the immunized mice were cultured with A) medium; B) Pam2Cys; C) non-lipidated peptide (SEQ ID No. 1); D) lipopeptide (containing SEQ ID No. 1) for 48 h. Cells were restimulated for 6 h and stained for surface CD4 and intracellular for IFN-γ. Representative flow cytometry contours depict IFN-γ producing CD4 T cells and numbers indicate their percentage.
# Mice were immunized with the developed immunogenic lipopeptides (20 nmol/animal). Twenty-one days later, a booster dose (10 nmol) was administered. Animals were sacrificed 45 days post booster immunization.
# Lymphocytes (2×10^6 cells/ml) were cultured with peptides in triplicates in 96 w plate for 48 h. Cells were pooled and washed twice with wash buffer (PBS containing FBS-1%). Cells were re-stimulated with PMA (50 ng/ml) and ionomycin (1 μg/ml) for 6 h/37° C. and in the last 4 h brefeldin A (10 μg/ml) was added in cultures. After 6 h of activation, cells, were washed twice with staining buffer (BSA-1%, NaN3-0.01% in PBS). […] Finally, cells were fixed in parafolmaldehyde-1% and acquired on FACS Aria II and data was analyzed by FACS DIVA (BD Biosciences, San Jose, Calif.).
# [1] = test system: human peripheral blood mononuclear cells; test: T cell proliferation of human PBMCs (3H-thymidine incorporation); format: cell-based; settings: compared to non-lipidated peptide counterparts, FIG. 9
# Bone marrow derived DCs = test: Activation and MHC markers on bone marrow derived DCs; format: cell-based, C57BL/6 mice; settings: BMDCs day 7, treated 12 hrs
# Experimental: FIG. 4. Lipidated peptides [immunogens] enhance DC maturation. (A) BALB/c mice were immunized with lipidated peptides [immunogen] and free peptides. Total splenocytes were recovered and in vitro stimulated with the lipidated and free peptides. After 48 hrs of incubation, they were harvested and stained for DC population (CD11c^+/CD40^+). CD11c^+/CD40^+ population indicates mature DCs. Lipidated immunogen constructs were able to induce DC maturation compared to their unlipidated counterparts. (B) Bone marrow derived DCs from C57BL/6 mice were cultured using standard protocol. On day 7 of culture they were treated with free or lipidated peptides for 12 hrs and then the cells were harvested and stained for activation markers. […] (C) On day 7 of culture, bone marrow derived DCs were treated with free or lipidated peptides for 12 hrs. Later on, the cells were harvested and stained for CD74 (immature MHC) and IA^b (mature MHC).
# M. tuberculosis H37Rv [2] = test system: M. tuberculosis H37Rv; parameters: species or system mice; settings: mouse, in vivo
# M. tuberculosis H37Rv [3] = test system: M. tuberculosis H37Rv; parameters: species or system Duncan-Hartley guinea pigs; settings: guinea pig, in vivo
# [4] = compared to free peptide, FIG. 4C
Compound,production of IFN-γ in CD4 T cells (CD4 T cells),proliferation of human PBMCs from sputum positive tuberculosis patient [1],expression of CD74 (immature MHC) (Bone marrow derived DCs; [4]),expression of IA^b (mature MHC) (Bone marrow derived DCs; [4]),"expression of CD80, CD86, CD40 (Bone marrow derived DCs; compared to p91 treated cells, FIG. 4B)",Mycobacterial load in lungs (CFU) (M. tuberculosis H37Rv [2]),Mycobacterial load in lungs (CFU) (M. tuberculosis H37Rv [3])
"CCCCCCCCCCCCCCCC(=O)OCC(CSC[C@H](N)C(=O)O)OC(=O)CCCCCCCCCCCCCCC (stereo partly drawn) [Pam2Cys, S-[2,3-bis(palmitoyloxy)propyl]cysteine, reference compound]",did not elicit production of IFN-γ,,,,,,
"L91: immunogen wherein X1=SEQ ID. No. 1 and X2=0; peptide linked via two serines to Pam2Cys (SEFAYGSFVRTVSLPVGADE; also: linked via two serines to Pam2Cys, end not given here; listed as Mycobacterium tuberculosis)",predominant production of IFN-γ,enhanced the proliferation,decrease in expression,enhanced expression,enhanced expression,restricted the growth of mycobacterium significantly,significantly lower bacterial load in lungs
